In ChEMBL document CHEMBL5291721, “A preclinical secondary pharmacology resource illuminates target-adverse drug reaction associations of marketed drugs” (Nat Commun, 2023):

Key:
[1] = molecular target: T1, Adenosine receptor A1 (Homo sapiens, UniProt P30542)
T1 sequence (P30542 whole entry): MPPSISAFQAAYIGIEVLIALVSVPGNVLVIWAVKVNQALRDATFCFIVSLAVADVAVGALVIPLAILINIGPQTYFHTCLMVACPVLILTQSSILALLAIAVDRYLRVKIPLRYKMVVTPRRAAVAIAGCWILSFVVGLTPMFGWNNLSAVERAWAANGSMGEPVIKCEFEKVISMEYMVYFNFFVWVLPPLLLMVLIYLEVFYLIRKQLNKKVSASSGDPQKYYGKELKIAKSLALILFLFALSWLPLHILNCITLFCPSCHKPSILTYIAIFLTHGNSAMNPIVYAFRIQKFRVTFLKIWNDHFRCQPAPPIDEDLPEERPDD

[2] = molecular target: Acetylcholinesterase (Homo sapiens, UniProt P22303); type: functional
[3] = molecular target: Vascular endothelial growth factor receptor 2 (Homo sapiens, UniProt P35968); type: functional
[4] = molecular target: T2, Peroxisome proliferator-activated receptor alpha (Homo sapiens, UniProt Q07869); type: functional
T2 sequence (Q07869 whole entry): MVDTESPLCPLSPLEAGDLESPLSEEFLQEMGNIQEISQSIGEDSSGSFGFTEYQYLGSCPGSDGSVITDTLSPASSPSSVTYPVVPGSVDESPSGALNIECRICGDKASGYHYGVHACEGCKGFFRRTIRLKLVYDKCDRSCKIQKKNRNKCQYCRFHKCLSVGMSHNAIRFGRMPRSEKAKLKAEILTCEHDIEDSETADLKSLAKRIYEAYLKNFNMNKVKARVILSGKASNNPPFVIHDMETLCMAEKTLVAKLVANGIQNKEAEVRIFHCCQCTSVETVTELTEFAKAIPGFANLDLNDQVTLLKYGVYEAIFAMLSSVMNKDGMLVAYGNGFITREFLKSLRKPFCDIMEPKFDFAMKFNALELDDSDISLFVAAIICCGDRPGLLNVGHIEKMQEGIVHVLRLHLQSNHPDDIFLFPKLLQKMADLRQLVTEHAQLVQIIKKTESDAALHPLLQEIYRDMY

[5] = molecular target: T3, Androgen receptor (Rattus norvegicus, UniProt P15207); type: functional
T3 sequence (P15207 whole entry): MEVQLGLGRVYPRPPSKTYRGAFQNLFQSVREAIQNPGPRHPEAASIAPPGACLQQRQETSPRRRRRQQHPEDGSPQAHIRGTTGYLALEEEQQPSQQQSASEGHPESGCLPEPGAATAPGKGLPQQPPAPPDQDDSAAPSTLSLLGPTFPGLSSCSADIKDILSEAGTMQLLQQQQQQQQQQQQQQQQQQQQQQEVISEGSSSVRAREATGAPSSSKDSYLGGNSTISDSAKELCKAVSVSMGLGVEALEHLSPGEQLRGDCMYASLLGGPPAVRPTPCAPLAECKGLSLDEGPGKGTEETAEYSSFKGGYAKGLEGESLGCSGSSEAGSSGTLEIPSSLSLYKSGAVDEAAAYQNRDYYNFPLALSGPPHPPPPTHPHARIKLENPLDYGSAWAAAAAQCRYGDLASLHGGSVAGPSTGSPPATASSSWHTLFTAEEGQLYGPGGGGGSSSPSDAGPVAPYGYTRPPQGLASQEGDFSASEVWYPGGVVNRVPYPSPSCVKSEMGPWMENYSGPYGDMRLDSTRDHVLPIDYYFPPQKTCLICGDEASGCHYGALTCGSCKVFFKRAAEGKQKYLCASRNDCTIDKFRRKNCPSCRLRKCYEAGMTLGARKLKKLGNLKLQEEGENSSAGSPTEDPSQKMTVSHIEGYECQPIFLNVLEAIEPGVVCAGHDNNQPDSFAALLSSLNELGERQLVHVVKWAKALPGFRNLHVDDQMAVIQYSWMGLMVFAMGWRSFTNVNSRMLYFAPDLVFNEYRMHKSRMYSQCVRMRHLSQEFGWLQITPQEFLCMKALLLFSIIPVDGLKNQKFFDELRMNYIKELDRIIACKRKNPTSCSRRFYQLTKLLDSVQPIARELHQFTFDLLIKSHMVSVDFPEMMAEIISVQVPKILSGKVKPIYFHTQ

[6] = molecular target: T4, D(4) dopamine receptor (Homo sapiens, UniProt P21917)
T4 sequence (P21917 whole entry): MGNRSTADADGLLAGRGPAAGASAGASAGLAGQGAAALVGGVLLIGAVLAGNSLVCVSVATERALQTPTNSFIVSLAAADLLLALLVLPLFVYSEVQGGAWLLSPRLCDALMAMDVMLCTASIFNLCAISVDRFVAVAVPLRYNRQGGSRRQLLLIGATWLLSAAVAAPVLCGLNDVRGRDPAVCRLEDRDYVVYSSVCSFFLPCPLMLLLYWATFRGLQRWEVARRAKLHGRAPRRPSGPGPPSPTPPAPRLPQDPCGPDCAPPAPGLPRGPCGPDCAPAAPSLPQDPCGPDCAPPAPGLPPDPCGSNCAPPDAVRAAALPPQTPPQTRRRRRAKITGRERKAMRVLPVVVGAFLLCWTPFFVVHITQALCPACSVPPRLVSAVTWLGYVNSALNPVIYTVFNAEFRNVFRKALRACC

[7] = molecular target: Gamma-aminobutyric acid type B receptor subunit 1 (Homo sapiens, UniProt Q9UBS5)
[8] = molecular target: 5-hydroxytryptamine receptor 7 (Homo sapiens, UniProt P34969)
[9] = molecular target: T5, Alpha-2A adrenergic receptor (Homo sapiens, UniProt P08913)
T5 sequence (P08913 whole entry): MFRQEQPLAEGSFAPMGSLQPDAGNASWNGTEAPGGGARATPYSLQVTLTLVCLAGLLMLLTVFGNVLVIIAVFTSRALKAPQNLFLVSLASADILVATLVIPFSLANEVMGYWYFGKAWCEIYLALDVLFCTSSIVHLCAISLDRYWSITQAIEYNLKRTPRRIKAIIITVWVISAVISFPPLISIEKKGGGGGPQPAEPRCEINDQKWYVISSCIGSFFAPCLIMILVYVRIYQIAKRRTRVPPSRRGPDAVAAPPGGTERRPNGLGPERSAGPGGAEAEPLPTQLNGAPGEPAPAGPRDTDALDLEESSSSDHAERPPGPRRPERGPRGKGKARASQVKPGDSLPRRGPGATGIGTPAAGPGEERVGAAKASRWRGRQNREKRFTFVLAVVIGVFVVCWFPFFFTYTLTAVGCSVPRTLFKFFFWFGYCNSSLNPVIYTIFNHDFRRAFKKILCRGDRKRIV

[10] = molecular target: 5-hydroxytryptamine receptor 2A (Homo sapiens, UniProt P28223)
Note: assay procedure not described here.

Sequence of Gamma-aminobutyric acid type B receptor subunit 1 (Q9UBS5 whole entry): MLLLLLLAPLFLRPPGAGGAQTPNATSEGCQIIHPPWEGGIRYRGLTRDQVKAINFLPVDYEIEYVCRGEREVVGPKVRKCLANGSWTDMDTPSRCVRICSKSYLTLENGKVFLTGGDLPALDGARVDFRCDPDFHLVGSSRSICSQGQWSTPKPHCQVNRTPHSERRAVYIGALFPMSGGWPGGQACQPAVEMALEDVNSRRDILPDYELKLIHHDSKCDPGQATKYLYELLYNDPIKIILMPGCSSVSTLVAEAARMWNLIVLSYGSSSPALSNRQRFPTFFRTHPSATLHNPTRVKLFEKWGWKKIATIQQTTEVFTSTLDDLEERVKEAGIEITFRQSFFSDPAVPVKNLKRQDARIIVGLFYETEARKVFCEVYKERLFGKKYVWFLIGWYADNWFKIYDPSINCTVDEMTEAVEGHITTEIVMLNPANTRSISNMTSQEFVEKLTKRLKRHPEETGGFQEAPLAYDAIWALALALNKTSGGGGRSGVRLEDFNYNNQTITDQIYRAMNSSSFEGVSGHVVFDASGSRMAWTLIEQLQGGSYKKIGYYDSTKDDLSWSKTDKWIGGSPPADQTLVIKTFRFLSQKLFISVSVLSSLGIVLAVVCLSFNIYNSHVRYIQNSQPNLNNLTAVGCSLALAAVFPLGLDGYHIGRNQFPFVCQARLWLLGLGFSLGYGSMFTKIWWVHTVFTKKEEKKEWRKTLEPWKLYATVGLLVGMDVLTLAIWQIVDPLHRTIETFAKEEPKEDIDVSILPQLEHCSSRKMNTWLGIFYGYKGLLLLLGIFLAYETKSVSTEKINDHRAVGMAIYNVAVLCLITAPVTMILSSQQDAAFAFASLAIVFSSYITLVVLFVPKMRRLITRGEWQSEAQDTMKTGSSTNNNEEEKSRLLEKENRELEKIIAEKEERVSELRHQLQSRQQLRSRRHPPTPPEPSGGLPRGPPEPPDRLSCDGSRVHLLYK
Sequence of 5-hydroxytryptamine receptor 2A (P28223 whole entry): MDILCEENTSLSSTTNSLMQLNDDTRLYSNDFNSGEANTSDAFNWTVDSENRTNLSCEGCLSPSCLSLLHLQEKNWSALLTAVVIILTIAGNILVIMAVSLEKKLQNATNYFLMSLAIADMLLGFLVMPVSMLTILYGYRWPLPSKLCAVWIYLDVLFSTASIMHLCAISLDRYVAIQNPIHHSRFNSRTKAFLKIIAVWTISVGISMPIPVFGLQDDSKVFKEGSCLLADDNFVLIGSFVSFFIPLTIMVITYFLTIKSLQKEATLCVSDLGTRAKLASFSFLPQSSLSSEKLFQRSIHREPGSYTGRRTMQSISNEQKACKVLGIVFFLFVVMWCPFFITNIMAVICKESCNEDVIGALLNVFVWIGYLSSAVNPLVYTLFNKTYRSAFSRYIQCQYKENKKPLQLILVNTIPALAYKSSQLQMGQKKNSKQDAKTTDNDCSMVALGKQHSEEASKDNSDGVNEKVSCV
Sequence of 5-hydroxytryptamine receptor 7 (P34969 whole entry): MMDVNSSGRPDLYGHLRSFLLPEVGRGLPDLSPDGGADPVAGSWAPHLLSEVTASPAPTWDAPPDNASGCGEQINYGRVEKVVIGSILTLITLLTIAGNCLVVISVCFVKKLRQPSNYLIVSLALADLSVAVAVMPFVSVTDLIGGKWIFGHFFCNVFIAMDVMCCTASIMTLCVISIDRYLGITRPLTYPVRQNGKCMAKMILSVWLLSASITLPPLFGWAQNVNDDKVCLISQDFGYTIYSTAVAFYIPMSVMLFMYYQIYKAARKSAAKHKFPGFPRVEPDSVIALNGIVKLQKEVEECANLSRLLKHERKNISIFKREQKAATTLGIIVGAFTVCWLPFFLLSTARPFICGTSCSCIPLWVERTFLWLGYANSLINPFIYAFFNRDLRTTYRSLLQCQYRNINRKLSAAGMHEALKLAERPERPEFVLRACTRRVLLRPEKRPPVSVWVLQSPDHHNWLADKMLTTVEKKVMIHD
Sequence of Acetylcholinesterase (P22303 whole entry): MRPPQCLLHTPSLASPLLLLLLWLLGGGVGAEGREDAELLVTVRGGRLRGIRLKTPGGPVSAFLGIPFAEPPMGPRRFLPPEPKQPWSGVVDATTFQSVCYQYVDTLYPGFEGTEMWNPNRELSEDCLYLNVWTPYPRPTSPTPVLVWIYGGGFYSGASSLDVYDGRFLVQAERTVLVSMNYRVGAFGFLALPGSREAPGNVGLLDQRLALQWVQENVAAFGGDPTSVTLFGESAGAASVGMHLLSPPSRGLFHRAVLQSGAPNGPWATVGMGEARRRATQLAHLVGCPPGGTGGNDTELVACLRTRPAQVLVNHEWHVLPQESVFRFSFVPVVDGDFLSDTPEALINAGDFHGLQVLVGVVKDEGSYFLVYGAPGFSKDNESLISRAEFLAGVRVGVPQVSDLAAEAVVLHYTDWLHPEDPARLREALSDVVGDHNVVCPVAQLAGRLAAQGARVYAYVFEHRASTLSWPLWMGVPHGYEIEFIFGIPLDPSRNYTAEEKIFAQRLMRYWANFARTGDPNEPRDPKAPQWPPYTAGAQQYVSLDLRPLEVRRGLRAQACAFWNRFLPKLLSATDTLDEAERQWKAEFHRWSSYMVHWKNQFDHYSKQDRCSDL
Sequence of Vascular endothelial growth factor receptor 2 (P35968 whole entry): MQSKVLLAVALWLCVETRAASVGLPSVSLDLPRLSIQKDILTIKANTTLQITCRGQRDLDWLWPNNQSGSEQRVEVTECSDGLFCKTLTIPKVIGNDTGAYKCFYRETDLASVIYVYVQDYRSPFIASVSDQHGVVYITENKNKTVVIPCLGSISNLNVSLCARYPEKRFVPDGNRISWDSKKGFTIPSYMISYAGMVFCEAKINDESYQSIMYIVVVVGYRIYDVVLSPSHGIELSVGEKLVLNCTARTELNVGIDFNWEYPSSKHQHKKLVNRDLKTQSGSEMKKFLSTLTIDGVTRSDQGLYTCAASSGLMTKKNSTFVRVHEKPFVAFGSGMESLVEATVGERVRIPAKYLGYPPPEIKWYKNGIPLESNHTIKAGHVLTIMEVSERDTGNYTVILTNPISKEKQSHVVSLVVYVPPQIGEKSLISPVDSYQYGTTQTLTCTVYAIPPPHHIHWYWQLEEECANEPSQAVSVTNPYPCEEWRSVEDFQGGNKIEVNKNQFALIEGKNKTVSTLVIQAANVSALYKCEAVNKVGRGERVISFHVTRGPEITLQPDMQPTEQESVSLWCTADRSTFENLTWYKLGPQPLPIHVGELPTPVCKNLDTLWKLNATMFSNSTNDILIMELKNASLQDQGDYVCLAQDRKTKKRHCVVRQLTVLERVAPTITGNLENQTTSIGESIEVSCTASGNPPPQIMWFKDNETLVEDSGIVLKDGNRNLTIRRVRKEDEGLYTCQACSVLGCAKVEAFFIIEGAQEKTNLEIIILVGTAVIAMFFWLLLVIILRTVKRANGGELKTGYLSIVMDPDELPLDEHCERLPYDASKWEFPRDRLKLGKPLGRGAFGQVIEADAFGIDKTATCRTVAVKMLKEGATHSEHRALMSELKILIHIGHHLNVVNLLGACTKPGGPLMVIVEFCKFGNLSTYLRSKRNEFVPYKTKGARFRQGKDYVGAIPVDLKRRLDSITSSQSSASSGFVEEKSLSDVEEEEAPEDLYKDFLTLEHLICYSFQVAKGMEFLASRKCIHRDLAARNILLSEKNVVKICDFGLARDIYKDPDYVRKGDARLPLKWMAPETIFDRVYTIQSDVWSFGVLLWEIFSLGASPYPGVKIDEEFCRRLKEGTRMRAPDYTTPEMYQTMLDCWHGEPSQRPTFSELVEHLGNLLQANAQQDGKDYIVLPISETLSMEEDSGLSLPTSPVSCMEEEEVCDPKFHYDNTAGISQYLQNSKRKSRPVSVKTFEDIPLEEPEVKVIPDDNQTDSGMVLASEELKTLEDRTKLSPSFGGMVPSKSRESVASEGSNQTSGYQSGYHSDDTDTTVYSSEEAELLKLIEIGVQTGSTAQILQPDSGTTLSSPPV

O=C(Nc1cccc2c(=O)cc(-c3nnn[nH]3)oc12)c1ccc(OCCCCc2ccccc2)cc1 was tested, and the AC50 [1] was 21.7 µM.

With CC(=N)N1CC[C@H](SC2=C(C(=O)O)N3C(=O)[C@H]([C@@H](C)O)[C@H]3C2)C1 the AC50 [2] was over 300 µM and the AC50 [3] was over 300 µM.

CC(/C=C1\SC(=S)N(CC(=O)O)C1=O)=C\c1ccccc1 gave an AC50 [4] of over 30 µM.

With CC1(C)S[C@@H]2[C@H](NC(=O)[C@H](N)c3ccc(O)cc3)C(=O)N2[C@H]1C(=O)O [AMOXICILLIN] the AC50 [5] was over 30 µM, the AC50 [6] was over 10 µM and the AC50 [7] was over 10 µM. The AC50 [8] was over 10 µM, the AC50 [4] was over 30 µM and the AC50 [9] was over 10 µM.

Work on O=C1CN2Cc3c(ccc(Cl)c3Cl)N=C2N1 [ANAGRELIDE] yielded an AC50 [10] of over 10 µM.

Compound CNCC[C@@H](Oc1ccccc1C)c1ccccc1 [ATOMOXETINE] has an AC50 [5] of over 30 µM.

Work on CCc1oc2ccccc2c1C(=O)c1cc(Br)c(O)c(Br)c1 [BENZBROMARONE] yielded an AC50 [9] of over 10 µM.

Work on C=C(C)[C@@H]1CCC(C)=C[C@H]1c1c(O)cc(CCCCC)cc1O [CANNABIDIOL] yielded an AC50 [2] of 17 µM and an AC50 [3] of over 30 µM.

[H]/N=C(\N/C(=N/[H])NCCCCCCNC(=N)NC(=N)Nc1ccc(Cl)cc1)Nc1ccc(Cl)cc1 [CHLORHEXIDINE] gave an AC50 [9] of over 10 µM.

COC(=O)[C@H](c1ccccc1Cl)N1CCc2sccc2C1 [CLOPIDOGREL] gave an AC50 [6] of over 10 µM, an AC50 [8] of over 10 µM and an AC50 [9] of over 10 µM.

Work on C#Cc1cccc(Nc2ncnc3cc(OCCOC)c(OCCOC)cc23)c1 [ERLOTINIB] yielded an AC50 [2] of over 30 µM.

Compound CCC(=O)O[C@@H](O[P@](=O)(CCCCc1ccccc1)CC(=O)N1C[C@H](C2CCCCC2)C[C@H]1C(=O)O)C(C)C [FOSINOPRIL] has an AC50 [1] of over 30 µM.

Compound C[C@H]1Oc2cc(cnc2N)-c2c(nn(C)c2C#N)CN(C)C(=O)c2ccc(F)cc21 [LORLATINIB] has an AC50 [2] of 1.8 µM and an AC50 [3] of over 30 µM.

In the case of CC(C)(N)C(=O)N[C@H](Cc1c[nH]c2ccccc12)C(=O)N[C@H](Cc1c[nH]c2ccccc12)NC=O [MACIMORELIN], the AC50 [1] is reported as over 30 µM.

With Cc1cnc(NC(=O)C2=C(O)c3ccccc3S(=O)(=O)N2C)s1 [MELOXICAM] the AC50 [6] was over 10 µM, the AC50 [7] was over 10 µM and the AC50 [8] was over 10 µM. The AC50 [9] was over 10 µM.

For CN(C)c1cc(CNCC(C)(C)C)c(O)c2c1C[C@H]1C[C@H]3[C@H](N(C)C)C(O)=C(C(N)=O)C(=O)[C@@]3(O)C(O)=C1C2=O [OMADACYCLINE], the AC50 [1] was over 30 µM and the AC50 [5] was over 30 µM.

Compound COc1ccnc(C[S+]([O-])c2nc3ccc(OC(F)F)cc3[nH]2)c1OC (stereo unspecified) [PANTOPRAZOLE] has an AC50 [6] of over 10 µM and an AC50 [9] of over 10 µM.

COc1ccc(Cc2nccc3cc(OC)c(OC)cc23)cc1OC [PAPAVERINE] gave an AC50 [5] of over 30 µM.

Compound CNC[C@H](O)c1cccc(O)c1 [PHENYLEPHRINE] has an AC50 [6] of over 10 µM, an AC50 [7] of over 10 µM and an AC50 [8] of over 10 µM. For the same compound, the AC50 [10] was over 10 µM.

With O=C1NC(=O)C(c2ccccc2)(c2ccccc2)N1 [PHENYTOIN] the AC50 [2] was over 30 µM and the AC50 [3] was over 30 µM.

Work on CC(C)C[C@H](CN)CC(=O)O [PREGABALIN] yielded an AC50 [2] of over 30 µM, an AC50 [3] of over 30 µM and an AC50 [10] of over 10 µM.

With CNC(=O)c1cc(Oc2ccc(NC(=O)Nc3ccc(Cl)c(C(F)(F)F)c3)c(F)c2)ccn1 [REGORAFENIB] the AC50 [1] was over 30 µM and the AC50 [4] was over 30 µM.

Compound CCOc1cc(CC(=O)N[C@@H](CC(C)C)c2ccccc2N2CCCCC2)ccc1C(=O)O [REPAGLINIDE] has an AC50 [4] of over 30 µM.

Work on O=C(Nc1c(Cl)cncc1Cl)c1ccc(OC(F)F)c(OCC2CC2)c1 [ROFLUMILAST] yielded an AC50 [5] of over 30 µM.

In the case of CCCN(CCC)CCc1cccc2c1CC(=O)N2 [ROPINIROLE], the AC50 [9] is reported as 12 µM, the AC50 [2] is reported as over 30 µM and the AC50 [3] is reported as over 30 µM. For the same compound, the AC50 [10] was over 10 µM.

With CCCN(CCc1cccs1)[C@H]1CCc2c(O)cccc2C1 [ROTIGOTINE] the AC50 [2] was 26 µM and the AC50 [3] was over 30 µM.

CC[C@H]1OC(=O)[C@H](C)[C@@H](O[C@H]2C[C@@](C)(OC)[C@@H](O)[C@H](C)O2)[C@H](C)[C@@H](O[C@@H]2O[C@H](C)C[C@H](N(C)C)[C@H]2O)[C@](C)(O)C[C@@H](C)/C(=N\OCOCCOC)[C@H](C)[C@@H](O)[C@]1(C)O [ROXITHROMYCIN] showed an AC50 [2] of over 30 µM and an AC50 [3] of over 30 µM.

For CC(C)N(CCCCOCC(=O)NS(C)(=O)=O)c1cnc(-c2ccccc2)c(-c2ccccc2)n1 [SELEXIPAG], the AC50 [5] was 17 µM.

In the case of CC(=O)S[C@@H]1CC2=CC(=O)CC[C@]2(C)[C@H]2CC[C@@]3(C)[C@@H](CC[C@@]34CCC(=O)O4)[C@H]12 [SPIRONOLACTONE], the AC50 [6] is reported as over 10 µM, the AC50 [9] is reported as over 10 µM and the AC50 [2] is reported as over 30 µM. For the same compound, the AC50 [3] was over 30 µM.

CCCCNc1ccc(C(=O)OCCN(C)C)cc1 [TETRACAINE] was tested, and the AC50 [1] was over 30 µM, the AC50 [6] was 4.14 µM and the AC50 [7] was over 10 µM. The AC50 [8] was over 10 µM and the AC50 [9] was over 10 µM.

With CN1CCN(CCCN2c3ccccc3Sc3ccc(S(=O)(=O)N(C)C)cc32)CC1 [THIOPROPERAZINE] the AC50 [1] was over 30 µM.

CC1(C)O[C@@H]2[C@@H](CO[C@@]3(COS(N)(=O)=O)OC(C)(C)O[C@@H]23)O1 [TOPIRAMATE] showed an AC50 [1] of over 30 µM, an AC50 [6] of over 10 µM and an AC50 [7] of over 10 µM. It also gave an AC50 [8] of over 10 µM, an AC50 [9] of over 10 µM and an AC50 [10] of over 10 µM.
